In patent publication US20220016146A1, “METHOD OF TREATING AGE-RELATED MACULAR DEGENERATION” (ZHUHAI QiWEl BIO-TECHNOLOGY LTD., priority 2018, published 2022):

Tests used:
[1] = tested on: Bacillus megaterium; assay: Antibiotic sensitivity testing in petri dishes (MIC method); assay type: cell-based; conditions: FIG. 1; for sensitivity of Bacillus megaterium to antimicrobial agent / control of growth in vitro: 1*10^7 bacteria per culture, 37° C., 24 h
Protocol: The bacterial culture medium (HuanKai Microbial, Guangzhou, China) containing peptone 5 g, beef extract 3 g, NaCl 5 g, agar 15 g, and MnSO4 5 mg in 1 L ddH2O (pH=7.2) was prepared in conical flask (Drtech, Guangzhou, China) and was sterilized in the autoclave (HIRAYAMA, HEV-50, Japan) at 121° C. for 30 min. Antibiotics (ampicillin, vancomycin, neomycin, metronidazole, and tetracycline, purchased from Sigma, USA) at various concentrations were added into cooled medium. Bacillus megaterium (total 1*10^7 per culture) was cultured in the incubator (HettCube 200, Germany) at 37° C. for 24 h.
To test whether antibiotics can control the growth of Bacillus megaterium in vitro and in vivo, an antibiotic sensitivity screening test in petri dishes was carried out. The sensitivity of Bacillus megaterium to several major antimicrobial agents including Ampicillin, vancomycin, neomycin, metronidazole, and tetracycline were examined using the minimum inhibitory concentration (MIC) method.

[2] = tested on: Bacillus megaterium; assay type: in vivo, monkey
Protocol: The inventors collected both AH and vitreous humor (VH) specimens from AMD patients and were able to detect B. megaterium DNA in both uncultured and cultured samples. The inventors further examined whether subretinal inoculation of AH and VH cultures which had B. megaterium, as well as the cultured single species of B. megaterium led to AMD like pathology in macaque. Briefly, about 20 CFU of bacteria (in 20 μl PBS) from AH, VH, and B. megaterium cultures were injected subretinally and PBS was used as a control. The fundus examination of macaque eye was performed before (Day 0) and after bacterial inoculation on Day 1, Day 3, Day 35 as well as Day 47. The PBS injection left only visible scar on the retina, while all bacterial inoculations led to drusenoid lesions on retinal tissues. Drusen-like nodules were also visible under the RPE layer. Fluorescence in situ hybridization results also located B. megaterium in drusenoid but not in the normal tissues post inoculation. An elevation in the expression of C5A, CFH, CASPASE1, and NLRP3 proteins was also detected in the B. megaterium infected drusenoid lesion and para-lesion tissues as compared to the uninfected normal retina in macaque.
Next, Bacillus megaterium subretinal inoculation model was used to test whether antibiotics might be able to change the bacteria-induced drusenoid pathology in monkey retinal tissues.

Row | Molecule | fold less effective in controlling the growth of Bacillus megaterium ([1]; compared with neomycin) [fold] | size of drusenoid lesion in retinal tissue ([2]; intravitreous 0.5 mg, one injection on Day 2 post bacterial inoculation, monkey, FIG. 2) | sensitivity of Bacillus megaterium to antimicrobial agent / control of growth in vitro [1] | ocular complications after intraocular administration ([2]; intraocular administration in monkey (data not shown))
1 | Cc1ncc([N+](=O)[O-])n1CCO [metronidazole] | 10000 | – | – | –
2 | CN[C@H](CC(C)C)C(=O)N[C@H]1C(=O)N[C@@H](CC(N)=O)C(=O)N[C@H]2C(=O)N[C@H]3C(=O)N[C@H](C(=O)N[C@H](C(=O)O)c4cc(O)cc(O)c4-c4cc3ccc4O)[C@H](O)c3ccc(c(Cl)c3)Oc3cc2cc(c3O[C@@H]2O[C@H](CO)[C@@H](O)[C@H](O)[C@H]2O[C@H]2C[C@](C)(N)[C@H](O)[C@H](C)O2)Oc2ccc(cc2Cl)[C@H]1O [vancomycin] | – | reduction in the size of drusenoid lesion | able to inhibit the growth | –
3 | neomycin | – | – | most sensitive | significant ocular complications including ophthalmatrophia
